Some results are limits rather than exact numbers.

The source of these data is article PMC5651349 (Alzheimer's & Dementia : Translational Research & Clinical …, 2016).

Series [1] is described as follows: Plasma pharmacokinetics following single dose. The series is classed as in vivo. The following applies: both, human, oral.
The nature of series [2]: CSF pharmacokinetics following single dose.
Series [3] is described as follows: Adverse events, single ascending dose.
A short description of series [4]: Adverse events, multiple ascending dose. The following applies: MAD.
Series [5] is described as follows: CSF pharmacokinetics following multiple dosing. To be noted: both, human, in vivo.
Series [6] can be described thus: Plasma and urine pharmacokinetics following multiple dosing. The following applies: for CL renal: Mean renal clearance.

For `C[C@@]1(c2cc(NC(=O)c3ccc(C#N)cn3)ccc2F)C=CSC(N)=N1` [JNJ-54861911], the time to peak (Tmax) (in general, the time from dosing to the highest level) in series [1] was 0.75 to 2 h; in series [5], approximately 4 h; in series [6] (both, human, in vivo) it was 2 to 4 h. For the same compound, the half-life – broadly, the time in which the quantity being followed falls by half – in series [1] was in the range of 9 to 16.1 h; in series [5], 11.7 to 14.4 h; in series [6] (both, human, in vivo), 14.4 to 18.5 h. Also, the “Single-dose CSF concentrations” value in series [2] (CSF, 1-mg and 3-mg dose level, elderly) is on record as “generally below the LOQ”. In addition, in series [2] (day 1, single dose, range across 10–150 mg), the “Maximal mean concentrations in CSF” value fell in the range of 2.94 to 22.7 ng/mL. In addition, in series [3] (SAD and MAD studies), the “Serious AEs (SAEs)” value is listed as “no serious AEs”. In addition, the “Back pain, participants with AE” value in series [3] (SAD, all JNJ-54861911 participants (10/42)) is given as 23.8%; in series [4] (all JNJ-54861911 participants (11/52)), 21.2%. In addition, the “Headache, participants with AE” value came out at 38.1% in series [3] (SAD, all JNJ-54861911 participants (16/42)) and 25.0% in series [4] (all JNJ-54861911 participants (13/52)). In addition, the Tolerability result in series [3] (single and multiple oral doses between 1 and 150 mg (SAD and MAD studies), healthy participants) is on record as “well-tolerated”. The CL renal in series [6] (human, in vivo, day 1 (single dose)) was 1.85 mL/min; in series [6] (human, in vivo, day 14) it was 1.92 mL/min. Also, in series [6] (plasma, multiple dosing, all cohorts), the “Steady state concentrations reached” value was not above 5 days.
